Data on 18 compounds can be found in article PMC9029746, “Discovery of Azaindolin-2-One as a Dual Inhibitor of GSK3β and Tau Aggregation with Potential Neuroprotective Activity” (Pharmaceuticals, 2022).

The target of experiment [1] is T1, human recombinant GSK3β (Homo sapiens, UniProt P49841).
T1 construct: purchased Promega Corporation, Madison, WI, USA (GSK3β Kinase Enzyme System)
Put plainly: GSK3β inhibition assay (GSK3β Kinase Enzyme System, ADP-Glo Kinase Assay). In kind it is biochemical. The conditions noted are these: for inhibition at 10 µM: read-out: percentage inhibition of GSK3β. How it is done: Screening of GSK3β inhibition activity for our new library was conducted using the […] luminescence assay to determine how much ATP is reduced after a kinase reaction.
According to the manufacturer’s protocol, the assay was conducted using GSK3β Kinase Enzyme System and ADP-Glo Kinase Assay (Promega Corporation, Madison, WI, USA) in 384-well plates. The kinase reaction was performed at room temperature using 2 ng/μL of human recombinant GSK3β, 0.2 μg/μL of GSK3 substrate ([…] (pS) EDEEE; amino acids 636–661), and 25 μM ATP in 4X kinase buffer containing 50 μM DTT. The compounds were added to enzyme solution and incubated for 2 h at room temperature. Then, kinase activity was quantified using the ADP-Glo Kinase Assay as previously described.

Experiment [2] has as its system GSK3β. The conditions noted are these: cited from earlier work.
Experiment [3] addresses T2, tau 2N4R isoform carrying P301L mutation (Homo sapiens, UniProt P10636, P618L).
T2 construct: host or cells: HeLa cells
Put plainly: Tau aggregation inhibition in a cell model of tauopathy (Tau Aggregation Assay Kit, HeLa cells). Type of experiment: cell-based. The conditions noted are these: for anti-tau aggregation effect: Hela cells, seed+; for inhibitory activity against tau aggregation: 1, 3, 10, and 30 µM overall. How it is done: Aggregation of Tau is observed using Hela cells transduced with the expression vector of tau 2N4R isoform carrying P301L mutation and fibrils of tau protein with P301L mutation as seed. We tested the anti-aggregation effects of (E)-2f and 3a at four different concentrations, namely (1 µM, 3 µM, 10 µM, 30 µM), the measurements combined with negative seed (negative control = normal aggregation level), and positive seed (positive control = AD aggregation levels). In other words, seed— and + indicate the absence and presence of fibrils of tau protein with P301L mutation as seed, respectively.
Figure 9 Anti-tau aggregation activity of compounds (E)-2f and 3a at 1, 3, 10, and 30 µM concentrations. (A) Tau proteins were stained with green fluorescence in HeLa cells transfected with the expression vector of tau 2N4R isoform carrying P301L mutation and incubated with the compounds. Microscopic observation was performed, and photos were shown on a 100 µm scale. Seed negative (seed−) and seed positive (seed+) indicate the absence and presence of fibrils of tau protein with P301L mutation, respectively. (B) Relative green spots per area (%) after exposure of Hela cells to compounds (E)-2f and 3a are compared to seed positive (seed+ = 100%). ImageJ counted more than 100 spots in the same area in each sample. *: denotes significant difference from control (seed+) at p < 0.05, **: denotes significant difference from control (seed+) at p < 0.01.
According to the manufacturer’s protocol, the assay was performed using Tau Aggregation Assay Kit (Cosmo Bio, Tokyo, Japan [catalog number: TAU01]). Briefly, HeLa cells were transfected with pCMV-Tau(2N4R)-P301L (20 ng) using Lipofectamine 3000 (ThermoFisher Scientific, Waltham, MA, USA) and treated with F-Tau (RD)-P301L (fibrils of tau protein with P301L mutation as seed, included in the assay kit). Drugs were added after 6 h, and the cells were incubated for 1 day. Next, immunostaining was performed basically as previously described. Tau proteins were stained with green fluorescence. In this staining, a TAU antibody (Proteintech, Rosemont, IL, USA [catalog number: 10274-1-AP]) was used as the first antibody, and goat anti-rabbit IgG (H + L) highly cross-adsorbed secondary antibody, Alexa Fluor 488 ThermoFisher Scientific) was used as the second antibody. An All-in-One Fluorescence Microscope BIOREVO BZ-9000 (Keyence, Osaka, Japan) was used as the microscope. ImageJ counted more than 100 spots in the same area in each sample [40, 41].

Experiment [4] concerns total tau. The experiment in a line: Western blot analysis of total tau in Hela cells. In kind it is cell-based, human. The conditions noted are these: 10 and 30 µM, 24 h, GAPDH normalization. How it is done:
Western blot analysis was then used to confirm the amount of the total tau in Hela cells used for microscopic observation. The lysate of Hela cells, after incubation with compounds (E)-2f and 3a at 10 and 30 µM concentrations, were analyzed by immunoblotting using the same anti-Tau antibody (Figure S42). ImageJ was used to quantify the total tau at each concentration and compared to the total tau level of Hela cells with positive seed (seed+) alone as a control.
Figure 10 Effect of compounds (E)-2f and 3a on Tau levels. HeLa cells transfected with the expression vector of tau 2N4R isoform carrying P301L mutation and incubated with compounds (E)-2f and 3a at 10 and 30 µM concentrations for 24 h. Then Hela cells were lysed, and the lysates were analyzed by Western blotting. The relative amount of total tau expressed in the total cell lysate of Hela cells of each lane was quantified by ImageJ. The total tau level of Hela cells with positive seed (seed+) alone was calculated from total tau after GAPDH normalization and is presented as Control (1.00).
Western blot analysis was performed by lysing Hela cells in PBS/Laemmli sample buffer (1:1) as described previously. […] Chemiluminescence detected immunoreactivity using ImmunoStar LD (FUJIFILM-Wako, Osaka, Japan).

Experiment [5] relates to A375. Put plainly: MTT assay, cytotoxicity. The note with it: Homo sapiens, A-375, 72 h; read-out: IC50 (µM) after 72 h Drug Treatment, A375. In kind it is cell-based. How it is done:
(§1) The human cervical carcinoma cell line HeLa, obtained from the American Type Culture Collection (ATCC), was cultured in Dulbecco’s modified Eagle’s medium (DMEM) supplemented with 5% heat-inactivated fetal bovine serum (FBS). The human glioblastoma cell line U251 (obtained from ATCC), colon carcinoma cell line HCT116 [provided by the RIKEN BRC through the National Bio-Resource Project of the MEXT/AMED, Japan (RCB2979)], and human melanoma cell line A375, obtained from ATCC, were cultured in DMEM supplemented with 10% heat-inactivated FBS. The human chronic myelogenous leukemia cell line K562 and human peripheral blood mononuclear cells (PBMC), both cells obtained from ATCC, were cultured in RPMI 1640 supplemented with 10% heat-inactivated FBS described previously.
(§2) Cells were seeded in a 24-well plate, and the compounds were added. After incubation for 3 days, a solution (1.1 mg/mL) of 3-(4,5-dimethylthiazol-2-yl)-2,5-diphenyl-2H-tetrazolium bromide (MTT, from DOJINDO Laboratories, Kumamoto, Japan) was added, and MTT assay was performed as previously described.
A general note: Tetrazolium dyes change colour on reduction, which living cells bring about.

The test system of experiment [6] is HCT-116. Put plainly: MTT assay, cytotoxicity. The note with it: Homo sapiens, HCT-116, 72 h; read-out: IC50 (µM) after 72 h Drug Treatment, HCT-116. Type of experiment: cell-based. How it is done: as §1, §2
Experiment [7] deals with K562. The experiment in a line: MTT assay, cytotoxicity. The conditions noted are these: Homo sapiens, K562, 72 h; read-out: IC50 (µM) after 72 h Drug Treatment, K562. Type of experiment: cell-based. How it is done: as §1, §2
Experiment [8] relates to U251. The experiment in a line: MTT assay, cytotoxicity. Type of experiment: cell-based. The note with it: Homo sapiens, U-251, 72 h; read-out: IC50 (µM) after 72 h Drug Treatment, U251. How it is done:
as §1, §2

Experiment [9] has as its system PBMC. Put plainly: MTT assay, cytotoxicity on normal blood cells. Type of experiment: cell-based. The conditions noted are these: Homo sapiens, 72 h, read-out: IC50 (µM) after 72 h Drug Treatment, PBMC. How it is done: as §1, §2
The target in experiment [10] is tau fibrils. Set-up: method as in PMID 17761424. The conditions noted are these: cited from earlier work.
In experiment [11] the target is alpha-synuclein (α-syn). Set-up: method as in PMID 17761424. The conditions noted are these: cited from earlier work.
In experiment [12] the target is beta-amyloid (Aβ). Also noted: method as in PMID 17761424. The note with it: cited from earlier work.

Entries after “also recorded” stand apart in the source; their conditions may differ. Read-outs that look alike come from different tables or passages of the source.

T2 sequence (P10636 1-441 isoform P10636-8 P301L): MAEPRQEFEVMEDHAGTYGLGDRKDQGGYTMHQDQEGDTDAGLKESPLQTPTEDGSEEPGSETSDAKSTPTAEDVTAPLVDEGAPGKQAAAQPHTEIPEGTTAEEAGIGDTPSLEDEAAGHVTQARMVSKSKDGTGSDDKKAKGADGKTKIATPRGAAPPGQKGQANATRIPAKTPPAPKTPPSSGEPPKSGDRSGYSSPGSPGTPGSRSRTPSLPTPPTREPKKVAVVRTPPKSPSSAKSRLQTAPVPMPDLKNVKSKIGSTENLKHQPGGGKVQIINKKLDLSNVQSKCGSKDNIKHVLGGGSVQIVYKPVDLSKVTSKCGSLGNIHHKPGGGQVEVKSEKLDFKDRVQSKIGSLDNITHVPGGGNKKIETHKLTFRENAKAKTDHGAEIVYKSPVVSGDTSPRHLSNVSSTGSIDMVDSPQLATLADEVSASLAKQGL
T1 sequence (P49841 whole entry): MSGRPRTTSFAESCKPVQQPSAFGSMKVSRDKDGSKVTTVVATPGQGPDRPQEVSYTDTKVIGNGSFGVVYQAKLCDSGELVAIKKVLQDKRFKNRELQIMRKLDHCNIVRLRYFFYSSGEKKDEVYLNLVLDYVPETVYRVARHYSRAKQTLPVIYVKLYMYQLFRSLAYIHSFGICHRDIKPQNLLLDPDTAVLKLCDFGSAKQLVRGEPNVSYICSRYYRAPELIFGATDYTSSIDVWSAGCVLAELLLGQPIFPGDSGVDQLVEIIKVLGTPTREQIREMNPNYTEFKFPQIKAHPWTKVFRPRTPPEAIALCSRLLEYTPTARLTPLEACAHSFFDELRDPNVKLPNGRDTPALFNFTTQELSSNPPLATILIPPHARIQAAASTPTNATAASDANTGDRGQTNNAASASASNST

Take `O=C1Nc2ncccc2/C1=C/c1ccncc1` [(Z)-3d]: the IC50 (usually the concentration needed to halve the response being measured) in experiment [1] (read-out: IC50 (µM) GSK3β) came out at 5.9 µM.

`CN(C)c1ccc(/C=C2\C(=O)Nc3ncccc32)cc1` [(Z)-3a]: in [1] (read-out: IC50 (µM) GSK3β), the half-maximal inhibitory concentration (IC50) worked out at 1.9 µM.

In the case of `CN(C)c1ccnc(/C=C2/C(=O)Nc3ncccc32)c1` [(E)-3c], the IC50 in experiment [1] (read-out: IC50 (µM) GSK3β) worked out at 3.2 µM.

Take `O=C1Nc2ccccc2/C1=C\c1ccccn1` [(E)-2a, (E)-3-(pyridin-2-ylmethylene)indolin-2-one]: the IC50 in experiment [1] was above 10 µM; in experiment [2] it was 0.00416 µM.

For the compound `Clc1cc(-c2c[nH]c3ncccc23)cc(NC2CCCCC2)n1` [Native ligand], the Ki (as a rule, the dissociation constant of the complex between target and ligand, obtained from inhibition or displacement) in experiment [2] was 0.058 µM.

On to `Cn1cc(-c2[nH][nH]c(=O)c2-c2cn(C)c3ccccc23)c2ccccc21` [III], for which the IC50 in [2] (in vitro) was 0.034 µM.

`O=C1Nc2ncccc2/C1=C\c1ccncc1` [(E)-3d]: the IC50 in [1] (read-out: IC50 (µM) GSK3β) is 5.9 µM.

As to `O=C1NC(=S)S/C1=C\c1cccc(-c2ccc3c(c2)OCO3)n1` [V], the IC50 in [2] was 1.6 µM.

With `CCN(CC)c1ccc(/C=C2\C(=O)Nc3ncccc32)cc1` [(Z)-3b], in experiment [1] (read-out: IC50 (µM) GSK3β), the IC50 came out at 3 µM.

With `COc1ccc2c(c1)c(/C=C1\SC(=O)NC1=O)cn2C` [IV], the IC50 in experiment [2] is 0.89 µM.

As for `CN(C)c1ccc(C=C2C(=O)Nc3ncccc32)cc1` (mixture of isomers) [Compound 3a, (E/Z)-3-(4-(dimethylamino)benzylidene)-1,3-dihydro-2H-pyrrolo [2,3-b]pyridin-2-one], the anti-tau aggregation effect result in [3] (30 µM) is on record as “completely protected Hela cells from tau aggregates”. Further, in experiment [3], the “inhibitory activity against tau aggregation” value was “concentration-dependent inhibitory activity”. Moreover, in experiment [4], the “total tau level compared to Hela cells with seed+ alone” value is listed as “little or no difference; also recorded: minimal effect”. Further, the IC50 was above 100 µM in experiment [5]; 9.8 µM in [6]; 4.7 µM in experiment [7]; 10.3 µM in experiment [8]; 94.5 µM in [9].

On to `CCN(CC)c1ccc(/C=C2/C(=O)Nc3ncccc32)cc1` [(E)-3b], for which the IC50 in experiment [1] (read-out: IC50 (µM) GSK3β) is 3 µM.

In the case of `CN(C)c1ccc(/C=C2/C(=O)Nc3ccccc32)cc1` [VII], the Ki in [10] is 95 nM; in experiment [11], 490 nM; in experiment [12] it was 140 nM.

For the compound `O=C1Nc2cc(F)ccc2/C1=C\c1ccccn1` [(E)-2e, (E)-6-fluoro-3-(pyridin-2-ylmethylene)indolin-2-one], the inhibition (in general, how much of the control response was suppressed) at 10 µM in experiment [1] is below 30%. In [1] (read-out: IC50 (µM) GSK3β), the IC50 was above 10 µM.

Consider `O=C1Nc2ncccc2/C1=C\c1ccccn1` [(E)-2f, (E)-3-(pyridin-2-ylmethylene)-1,3-dihydro-2H-pyrrolo [2,3-b]pyridin-2-one], for which the inhibition at 10 µM in experiment [1] is 76.4%. The half-maximal inhibitory concentration (IC50) was 1.7 µM in [1] (read-out: IC50 (µM) GSK3β); 14 µM in experiment [5]; 12.8 µM in experiment [6]; 13.8 µM in experiment [7]; 28.2 µM in experiment [8]; above 300 µM in [9]. In addition, the anti-tau aggregation effect result in experiment [3] (1 µM) is “no efficacy”; in experiment [3] (3 µM), “moderate efficacy”; in [3] (10 µM), “significant anti-aggregation effect”; in experiment [3] (30 µM) it was “completely protected Hela cells from tau aggregates”. Further, the “inhibitory activity against tau aggregation” value in experiment [3] was “pronounced tau anti-aggregation effect; also recorded: concentration-dependent inhibitory activity”. Besides, the “total tau level compared to Hela cells with seed+ alone” value in experiment [4] is listed as “little or no difference; also recorded: minimal effect”.

As to `O=C1Nc2ccc(F)cc2/C1=C\c1ccccn1` [(E)-2d, (E)-5-fluoro-3-(pyridin-2-ylmethylene)indolin-2-one], the inhibition at 10 µM in experiment [1] is below 30%. In addition, the IC50 in experiment [1] (read-out: IC50 (µM) GSK3β) was above 10 µM.

For the compound `O=C1Nc2ccc(Cl)cc2/C1=C\c1ccccn1` [(E)-2b, (E)-5-chloro-3-(pyridin-2-ylmethylene)indolin-2-one], the IC50 in experiment [1] (read-out: IC50 (µM) GSK3β) was above 10 µM.

`O=C1Nc2cc(Cl)ccc2/C1=C\c1ccccn1` [(E)-2c, (E)-6-chloro-3-(pyridin-2-ylmethylene)indolin-2-one]: the inhibition at 10 µM in experiment [1] is 45%. Also, in [1] (read-out: IC50 (µM) GSK3β), the IC50 was above 10 µM.
